Counter-ions that a name gives are not always drawn. Peptide text beside a SMILES is read from it.
Assays:
[1] = system: NCI-H292 lung cancer cells; experiment: FDA drug screening, complete media vs cholesterol-free media without statin (TABLE 1); type: cell-based, human
[2] = system: NCI-H292 lung cancer cells; experiment: FDA drug screening, complete media vs cholesterol-free media with simvastatin (TABLE 2); type: cell-based, human; settings: for Cholesterol-free media + simvastatin (0.04 μM) / Complete Media: NCI-H292 cells
[3] = NCI-H292 cells, cholesterol-free media without statin, FDA drug library screen
[4] = NCI-H292 cells, complete media, FDA drug library screen
[5] = complete vs cholesterol-free media, >0 enhanced anti-cancer activity, about 0 neutral, <0 antagonist
[6] = complete media minus cholesterol-free media + simvastatin, >0 enhanced anti-cancer activity, about 0 neutral, <0 antagonist
[7] = drug in cholesterol-free media with simvastatin 0.04 μM
[8] = complete media vs cholesterol-free media + simvastatin (0.04 μM), >0 enhanced anti-cancer activity, about 0 neutral, <0 antagonist
[9] = Complete minus Cholesterol-free, greater than 0 enhanced anti-cancer activity, about 0 neutral, below 0 antagonist
[10] = NCI-H292 cells, FDA drug library screen, cholesterol-free media without statin
[11] = NCI-H292 cells, FDA drug library screen, complete media
[12] = Complete minus Cholesterol-free, greater than 0 enhanced anti-cancer activity, about 0 neutral, below 0 antagonists
[13] = NCI-H292 cells in complete media
[14] = Complete minus Cholesterol-free, >0 enhanced anti-cancer activity, about 0 neutral, <0 antagonist
[15] = FDA drug library screen, cholesterol-free media with simvastatin 0.04 μM
[16] = FDA drug library screen, complete media
[17] = NCI-H292 cells, cholesterol-free media without statin
[18] = complete media vs cholesterol-free media + simvastatin (0.04 μM), […]
[19] = complete vs cholesterol-free media, […]
[20] = complete vs cholesterol-free media, greater than 0 enhanced anti-cancer activity, about 0 neutral, below 0 antagonists
[21] = FDA library drug in cholesterol-free media with simvastatin 0.04 μM
[22] = FDA library drug in complete media
[23] = cholesterol-free media with simvastatin 0.04 μM, FDA drug library screen (TABLE 2)
[24] = complete media, FDA drug library screen (TABLE 2)
[25] = complete media minus cholesterol-free media + simvastatin (0.04 μM), >0 enhanced anti-cancer activity, about 0 neutral, <0 antagonist

## Cc1[nH]c(/C=C2\C(=O)Nc3ccc(F)cc32)c(C)c1C(=O)NCCN1CCCC1 [Toceranib]
[1]; [3]
  Cholesterol-free: 0.7492
[1]; [4]
  Complete: 1.361
[1]; [5]
  Difference: 0.61
[2]; cholesterol-free media with simvastatin 0.04 μM, cell growth value in FDA drug screen
  Cholesterol-free media + simvastatin (0.04 μM): 0.9375
[2]; complete media, cell growth value in FDA drug screen
  Complete Media: 1.022
[2]; [6]
  Difference: 0.08

## O=C(O)CCCN1CCC(O[C@@H](c2ccc(Cl)cc2)c2ccccn2)CC1 [Bepotastine]
[1]; [3]
  Cholesterol-free: 0.9809
[1]; [4]
  Complete: 1.256
[1]; [5]
  Difference: 0.28
[2]; [7]
  Cholesterol-free media + simvastatin (0.04 μM): 0.9667
[2]; drug in complete media
  Complete Media: 0.7639
[2]; [8]
  Difference: −0.20

## CNS(=O)(=O)CCc1ccc2[nH]cc(C3CCN(C)CC3)c2c1 [Naratriptan (hydrochloride)]
[1]; [9]
  Difference: −0.17
[1]; [10]
  Cholesterol-free: 1.077
[1]; [11]
  Complete: 0.9077
[2]; [7]
  Cholesterol-free media + simvastatin (0.04 μM): 1.179
[2]; drug in complete media
  Complete Media: 0.9588
[2]; [8]
  Difference: −0.22

## Penbutolol (sulfate)
[1]; [12]
  Difference: −0.71
[1]; [13]
  Complete: 1.219
[2]; [7]
  Cholesterol-free media + simvastatin (0.04 μM): 0.9562
[2]; drug in complete media
  Complete Media: 0.7448
[2]; [8]
  Difference: −0.21

## CC(C)(CO)[C@H](O)C(=O)NCCC(=O)O.[Na] [D-Pantothenic acid (sodium)]
[1]; [14]
  Difference: −0.03
[1]; [3]
  Cholesterol-free: 1.02
[1]; [4]
  Complete: 0.9879
[2]; [7]
  Cholesterol-free media + simvastatin (0.04 μM): 1.102
[2]; drug in complete media
  Complete Media: 0.858
[2]; [8]
  Difference: −0.24

## CO[C@H]1/C=C/O[C@@]2(C)Oc3c(C)c(O)c4c(O)c(c5c(nc6cc(C)ccn65)c4c3C2=O)NC(=O)/C(C)=C\C=C\[C@H](C)[C@H](O)[C@@H](C)[C@@H](O)[C@@H](C)[C@H](OC(C)=O)[C@@H]1C [Rifaximin]
[1]; [3]
  Cholesterol-free: 0.8156
[1]; [4]
  Complete: 1.163
[1]; [5]
  Difference: 0.35
[2]; [15]
  Cholesterol-free media + simvastatin (0.04 μM): 0.8832
[2]; [16]
  Complete Media: 0.7304
[2]; [8]
  Difference: −0.15

## C[C@H](O)[C@H](O)[C@H]1CNc2nc(N)[nH]c(=O)c2N1 [Sapropterin (dihydrochloride)]
[1]; [14]
  Difference: −0.20
[1]; [17]
  Cholesterol-free: 1.242
[1]; NCI-H292 cells, complete media
  Complete: 1.038
[2]; [7]
  Cholesterol-free media + simvastatin (0.04 μM): 1.145
[2]; drug in complete media
  Complete Media: 0.9841
[2]; [8]
  Difference: −0.16

## CC(=O)N[C@H]1[C@H]([C@H](O)[C@H](O)CO)OC(C(=O)O)=C[C@@H]1N=C(N)N [Zanamivir]
[1]; [12]
  Difference: −0.85
[1]; NCI-H292 cells in cholesterol-free media without statin
  Cholesterol-free: 1.947
[1]; [13]
  Complete: 1.097
[2]; [7]
  Cholesterol-free media + simvastatin (0.04 μM): 1.295
[2]; drug in complete media
  Complete Media: 1.107
[2]; [8]
  Difference: −0.19

## CCNC(=O)[C@@H]1CCCN1C(=O)[C@H](CCCNC(=N)N)NC(=O)[C@H](CC(C)C)NC(=O)CNC(=O)[C@H](Cc1ccc(O)cc1)NC(=O)[C@H](CO)NC(=O)[C@H](Cc1c[nH]c2ccccc12)NC(=O)[C@H](Cc1c[nH]cn1)NC(=O)[C@@H]1CCC(=O)N1 [Fertirelin] (HELM PEPTIDE1{[Glp].H.W.S.Y.G.L.R.P.[CCN[*:1]]}$$$$V2.0)
[1]; Complete minus Cholesterol-free, […]
  Difference: −0.12
[1]; [10]
  Cholesterol-free: 0.9867
[1]; [11]
  Complete: 0.8642
[2]; [7]
  Cholesterol-free media + simvastatin (0.04 μM): 1.367
[2]; drug in complete media
  Complete Media: 1.138
[2]; [18]
  Difference: −0.23

## N[C@@H](CO)C(=O)O [L-Serine]
[1]; [17]
  Cholesterol-free: 1.3
[1]; NCI-H292 cells, complete media
  Complete: 0.9649
[1]; [19]
  Difference: −0.33
[2]; [7]
  Cholesterol-free media + simvastatin (0.04 μM): 1.125
[2]; drug in complete media
  Complete Media: 0.9461
[2]; [18]
  Difference: −0.18

## O=C1NCCN1CCN1CCC(c2cn(-c3ccc(F)cc3)c3ccc(Cl)cc23)CC1 [Sertindole]
[1]; [14]
  Difference: −0.04
[1]; [3]
  Cholesterol-free: 0.5468
[1]; [4]
  Complete: 0.5035
[2]; [15]
  Cholesterol-free media + simvastatin (0.04 μM): 0.7983
[2]; [16]
  Complete Media: 1.128
[2]; [6]
  Difference: 0.33

## C=C1CCN([C@H](C)[C@](O)(Cn2cncn2)c2ccc(F)cc2F)CC1 [Efinaconazole]
[1]; [17]
  Cholesterol-free: 1.307
[1]; NCI-H292 cells, complete media
  Complete: 0.8534
[1]; [20]
  Difference: −0.45
[2]; [15]
  Cholesterol-free media + simvastatin (0.04 μM): 0.5953
[2]; [16]
  Complete Media: 1.082
[2]; [6]
  Difference: 0.49

## CC(C)c1nc(CN(C)C(=O)N[C@H](C(=O)N[C@@H](Cc2ccccc2)C[C@H](O)[C@H](Cc2ccccc2)NC(=O)OCc2cncs2)C(C)C)cs1 [Ritonavir]
[1]; [14]
  Difference: −0.25
[1]; [17]
  Cholesterol-free: 1.533
[1]; NCI-H292 cells, complete media
  Complete: 1.287
[2]; [21]
  Cholesterol-free media + simvastatin (0.04 μM): 1.133
[2]; [22]
  Complete Media: 0.8233
[2]; [8]
  Difference: −0.31

## NS(=O)(=O)c1cc(Cl)c(Cl)c(S(N)(=O)=O)c1 [Dichlorphenamide]
[1]; [9]
  Difference: −0.08
[1]; [10]
  Cholesterol-free: 1.046
[1]; [11]
  Complete: 0.9714
[2]; [23]
  Cholesterol-free media + simvastatin (0.04 μM): 1.117
[2]; [24]
  Complete Media: 1.073
[2]; [25]
  Difference: −0.04

## C=CCc1ccc(O)c(-c2cc(CC=C)ccc2O)c1 [Magnolol]
[1]; [3]
  Cholesterol-free: 0.6495
[1]; [4]
  Complete: 1.053
[1]; [19]
  Difference: 0.40
[2]; [7]
  Cholesterol-free media + simvastatin (0.04 μM): 1.293
[2]; drug in complete media
  Complete Media: 1.087
[2]; [18]
  Difference: −0.21

## Cc1nc(-c2ccc(OCC(C)C)c(C#N)c2)sc1C(=O)O [Febuxostat]
[1]; [3]
  Cholesterol-free: 0.955
[1]; [4]
  Complete: 1.415
[1]; [5]
  Difference: 0.46
[2]; [15]
  Cholesterol-free media + simvastatin (0.04 μM): 1.155
[2]; [16]
  Complete Media: 1.036
[2]; [8]
  Difference: −0.12

## c1ccc([C@H]2CN3CCSC3=N2)cc1 [Levamisole (hydrochloride)]
[1]; [3]
  Cholesterol-free: 1.001
[1]; [4]
  Complete: 1.665
[1]; [5]
  Difference: 0.66
[2]; [21]
  Cholesterol-free media + simvastatin (0.04 μM): 1.301
[2]; [22]
  Complete Media: 0.9046
[2]; [8]
  Difference: −0.40

## O=C(CNC(=O)c1ccc(C2=NOC(c3cc(Cl)cc(C(F)(F)F)c3)(C(F)(F)F)C2)c2ccccc12)NCC(F)(F)F (centres unmarked) [Afoxolaner]
[1]; [3]
  Cholesterol-free: 1.008
[1]; [4]
  Complete: 1.19
[1]; [19]
  Difference: 0.18
[2]; [15]
  Cholesterol-free media + simvastatin (0.04 μM): 2.42
[2]; complete media minus cholesterol-free media + simvastatin (0.04 μM), […]
  Difference: −1.05

## CC(=O)OCC(=O)[C@@]1(O)CC[C@H]2[C@@H]3CCC4=CC(=O)C=C[C@]4(C)[C@@]3(Cl)[C@@H](Cl)C[C@@]21C [Dichlorisone acetate]
[1]; [3]
  Cholesterol-free: 0.8532
[1]; [4]
  Complete: 1.096
[1]; [5]
  Difference: 0.24
[2]; [23]
  Cholesterol-free media + simvastatin (0.04 μM): 0.7442
[2]; [24]
  Complete Media: 0.6906
[2]; [25]
  Difference: −0.05

## CC1CCC(C(C)C)C(O)C1 (single isomer, unassigned; (-)) [(−)-Menthol]
[1]; [17]
  Cholesterol-free: 1.434
[1]; NCI-H292 cells, complete media
  Complete: 1.115
[1]; [20]
  Difference: −0.32
[2]; [21]
  Cholesterol-free media + simvastatin (0.04 μM): 1.223
[2]; [22]
  Complete Media: 0.8866
[2]; [8]
  Difference: −0.34

## CCCCCCCC(=O)OCC(COC(=O)CCCCCCC)OC(=O)CCCCCCC [Tricaprilin]
[1]; [14]
  Difference: 0.03
[1]; [3]
  Cholesterol-free: 0.9476
[1]; [4]
  Complete: 0.9746
[2]; [15]
  Cholesterol-free media + simvastatin (0.04 μM): 1.072
[2]; [16]
  Complete Media: 0.9486
[2]; [8]
  Difference: −0.12

## Maraviroc
[1]; [3]
  Cholesterol-free: 0.6337
[1]; [4]
  Complete: 0.8933
[1]; [19]
  Difference: 0.26
[2]; complete media minus cholesterol-free media + simvastatin, […]
  Difference: 0.03
